Patent publication US20210309860A1, “ANTHRAQUINONIC DERIVATIVES AND THEIR USE AS COLOURING AGENTS” (PILI, priority 2018, published 2021)

Experiments:
[1] = Experimental log P octanol/water by UV-Vis spectroscopy assay; details: octanol/water (1:1), pH 7
[2] = UV-Visible analysis in methanol; format: physicochemical; details: for Colour: methanol solution; for log ε / λmax visible / L1/2: methanol; for log ε: log of average molar extinction coefficient, characterizes the strength of the colour; for λmax visible: maximum absorption in visible spectra 400-800 nm, 1 cm quartz cuvette, characterizes the colour; for L1/2: width measured at A/2, characterizes the brilliance of the colour
Method: UV-Visible analysis was carried on a Genesys10 UV photometer and recorded with the help of “VisionLite Scan” software. For each molecule, a certain amount was weighed with a precision balance and fully dissolved (under sonication if necessary) in methanol to obtain a mother solution at 1 mg/mL. Serial dilutions were performed to obtain samples in a range from 0.0025 mg/mL to 0.5 mg/mL. Samples were analyzed from 190 to 800 nm in a 1 cm quartz cuvette. For each concentration, the wavelength of maximum absorption in the visible spectra (400-800 nm) was recorded with a precision of 2 nm, and the width was measured at A/2. Additionally, molar extinction coefficient ε was calculated for each sample and the log of the average value presented. λmax visible characterizes the colour, L1/2 characterizes the brilliance of the colour, ε characterizes the strength of the colour.

[3] = pH 7

Row | Compound | logP at 6 h [1] | Colour [2] | log ε [2] | λmax visible [2] | L1/2 [2] | Measured logP [3]
1 | O=C1c2cccc(O)c2C(=O)c2c(O)cccc21 [1,8-dihydroxy anthraquinone] | 3.4 |  |  |  |  | 
2 | O=C1c2ccccc2C(=O)c2c1ccc(O)c2O [Alizarin] | 2.8 |  |  |  |  | 
3 | Cc1cc(O)c2c(c1)C(=O)c1cccc(O)c1C2=O [Chrysophanic acid] | 4 |  |  |  |  | 
4 | Cc1cc(O)cc2c1C(=O)c1c(O)cccc1C2=O [Compound 5, 3,8-dihydroxy-1-methyl-anthracene-9,10-dione, reference compound] | 3.2 | Yellow | 3.5 | 408 nm | 94 nm | 
5 | COc1cc(C)c2c(c1)C(=O)c1cccc(O)c1C2=O [Compound 6, 8-hydroxy-3-methoxy-1-methyl-anthracene-9,10-dione, reference compound] |  | Stronger yellow | 3.62 | 406 nm | 81 nm | 
6 | Cc1c(C(=O)O)c(O)cc2c1C(=O)c1c(O)cccc1C2=O [Compound 7, 3,8-dihydroxy-1-methyl-9,10-dioxo-anthracene-2-carboxylic acid, reference compound] |  | Yellow | 3.9 | 408 nm | 86 nm | 
7 | Cc1cc(N)cc2c1C(=O)c1c(O)cccc1C2=O [Compound 8, 3-amino-8-hydroxy-1-methyl-anthracene-9,10-dione] |  | Orange | 2.44 | 452 nm | 142 nm | 

Second part, the compound after the results:

Row | logP at 6 h [1] | Colour [2] | log ε [2] | λmax visible [2] | L1/2 [2] | Measured logP [3] | Compound
8 |  | “Carmine-like” red | 2.25 | 480 nm | 104 nm |  | Cc1cc(Nc2ccccc2)cc2c1C(=O)c1c(O)cccc1C2=O [Compound 9, 3-anilino-8-hydroxy-1-methyl-anthracene-9,10-dione]
9 |  | Purple/red purplish | 2.72 | 496 nm | 152 nm |  | Cc1cc(Nc2ccccc2)cc2c1C(=O)c1c(Nc3ccccc3)cccc1C2=O [Compound 10, 3,8-dianilino-1-methyl-anthracene-9,10-dione]
10 |  | Purple | 2.8 | 510 nm | 128 nm |  | CC(=O)Nc1cccc(Nc2cc(C)c3c(c2)C(=O)c2cccc(Nc4cccc(NC(C)=O)c4)c2C3=O)c1 [Compound 11, N-(3-((6-(3-acetamidoanilino)-8-methyl-9,10-dioxo-1-anthryl)amino)phenyl) Acetamide]
11 |  | Purple | 2.46 | 524 nm | 94 nm |  | Cc1cc(NC2CCCCC2)cc2c1C(=O)c1c(NC3CCCCC3)cccc1C2=O [Compound 12, 3,8-bis(cyclohexylamino)-1-methyl-anthracene-9,10-dione]
12 |  | Red-purple | 3.12 | 508 nm | 104 nm |  | Cc1ccc(S(=O)(=O)Oc2cccc3c2C(=O)c2c(C)cc(Nc4ccccc4)cc2C3=O)cc1 [Compound 14, (6-anilino-8-methyl-9,10-dioxo-1-anthryl)-4-methylbenzenesulfonate]
13 |  | Purple | 3.41 | 498 nm | 100 nm |  | Cc1cc(O)c(N)c2c1C(=O)c1c(O)cccc1C2=O [Compound 17b, 1-amino-2,5-dihydroxy-4-methyl-anthracene-9,10-dione]
14 |  | Purple | 3.25 | 518 nm | 106 nm |  | Cc1c(C(=O)O)c(O)c(N)c2c1C(=O)c1c(O)ccc(N)c1C2=O [Compound 19b, 4,5-diamino-3,8-dihydroxy-1-methyl-9,10-dioxo-anthracene-2-carboxylic acid]
15 |  |  |  |  |  | 3.7 | Quinizarin
